Our source for the IC50 values is patent US20110224136A1, “INHIBITORS OF DIACYLGLYCEROL ACYLTRANSFERASE” (priority 2008, published 2011).

What is called IC50 is the midpoint of a concentration-inhibition curve.

The assay deals with T1, human DGAT1 enzyme (Homo sapiens, UniProt O75907).
T1 construct: made in house; host or cells: Sf9 insect cells (microsomes)
T1 sequence (O75907 1-488): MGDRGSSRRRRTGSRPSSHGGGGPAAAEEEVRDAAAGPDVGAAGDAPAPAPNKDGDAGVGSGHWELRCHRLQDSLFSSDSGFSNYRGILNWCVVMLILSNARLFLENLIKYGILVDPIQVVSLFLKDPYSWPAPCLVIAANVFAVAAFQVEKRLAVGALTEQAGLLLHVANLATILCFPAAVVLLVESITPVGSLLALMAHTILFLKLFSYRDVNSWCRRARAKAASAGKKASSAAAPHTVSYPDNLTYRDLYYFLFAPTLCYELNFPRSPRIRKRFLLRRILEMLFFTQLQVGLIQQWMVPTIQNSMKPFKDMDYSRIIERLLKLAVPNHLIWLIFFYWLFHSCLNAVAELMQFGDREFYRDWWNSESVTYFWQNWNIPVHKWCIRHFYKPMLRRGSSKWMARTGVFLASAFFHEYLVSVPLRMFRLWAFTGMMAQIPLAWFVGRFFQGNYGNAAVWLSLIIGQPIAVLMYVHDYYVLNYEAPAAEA
The assay is described as follows: in vitro DGAT1 inhibition assay (microsomes, [14C]-palmitoyl-CoA, scintillation proximity). It is filed as biochemical. The settings on record: human DGAT1 expressed in Sf9 insect cell microsomes; 2 hours at room temperature; read-out: hDGAT IC50. How it is done:
A useful assay to determine the DGAT inhibitory activity of the inventive compounds is described below:
The in vitro assay to identify DGAT1 inhibitors uses human DGAT1 enzyme expressed in Sf9 insect cells prepared as microsomes. The reaction is initiated by the addition of the combined substrates 1,2-dioleoyl-sn-glycerol and [^14C]-palmitoyl-CoA and incubated with test compounds and microsomal membranes for 2 hours at room temperature. The assay is stopped by adding 0.5 mg wheat germ agglutinin beads in assay buffer with 1% Brij-35 and 1% 3-cholamidopropyldimethyl-ammonio-1-propane sulfonate. Plates are sealed with TopSeal and incubated for 18 hours to allow the radioactive triglyceride product to come into proximity with the bead. Plates are read on a TopCount instrument.
Percent inhibition was calculated as the percent of (test compound inhibition minus non-specific binding) relative to (total binding minus non-specific binding). IC50 values were determined by curve fitting the data to a Sigmoidal dose-response in GraphPad Prism utilizing the following equation:
Y=A+(B−A)/(1+10̂((Log IC50−X))),
where A and B are the bottom and top of the curve (highest and lowest inhibition), respectively, and X is the logarithm of concentration.
Background: Scintillation proximity formats need no separation of bound from free tracer.
Turning to `O=C(Nc1cnc(N2CCN(C(=O)Nc3ccccc3F)CC2)nc1)c1oc(N2CCC(c3ccccc3)CC2)nc1C(F)(F)F` [Compound 327, N-(2-(4-(2-fluorophenylcarbamoyl)piperazin-1-yl)pyrimidin-5-yl)-2-(4-phenylpiperidin-1-yl)-4-(trifluoromethyl)oxazole-5-carboxamide], the IC50 was in the range of 101 to 500 nM.

Take `CN(c1ncc(C(=O)Nc2ccc(N3CCN(C(=O)Nc4ccccc4F)CC3)nc2)c(C(F)(F)F)n1)C1CCCC1` [Compound 220, 2-(cyclopentyl(methyl)amino)-N-(6-(4-(2-fluorophenylcarbamoyl)piperazin-1-yl)pyridin-3-yl)-4-(trifluoromethyl)pyrimidine-5-carboxamide]: the half-inhibitory concentration (IC50) fell in the range of 101 to 500 nM.

For the compound `CN(Cc1nc(C(F)(F)F)c(C(=O)Nc2ccc(N3CCN(C(=O)Nc4ccccc4F)CC3)nc2)s1)c1ccccc1` [Compound 247, N-(6-(4-(2-fluorophenylcarbamoyl)piperazin-1-yl)pyridin-3-yl)-2-((methyl(phenyl)amino)methyl)-4-(trifluoromethyl)thiazole-5-carboxamide], the IC50 was 101 to 500 nM.

As to `O=C(Nc1ccc(N2CCN(C(=O)[C@H]3CC[C@H](C(=O)O)CC3)CC2)nc1)c1oc(N2CCC(c3ccccc3)CC2)nc1C(F)(F)F` [Compound 296, trans-4-(4-(5-(2-(4-phenylpiperidin-1-yl)-4-(trifluoromethyl)oxazole-5-carboxamido)pyridin-2-yl)piperazine-1-carbonyl)cyclohexanecarboxylic acid], the IC50 is 11 to 100 nM.

On to `CC1CCCN(c2nc(C(F)(F)F)c(C(=O)Nc3ccc(N4CCN(C(=O)Nc5ccccc5F)CC4)cn3)o2)C1` (centres unmarked) [Compound 236, N-(5-(4-(2-fluorophenylcarbamoyl)piperazin-1-yl)pyridin-2-yl)-2-(3-methylpiperidin-1-yl)-4-(trifluoromethyl)oxazole-5-carboxamide], for which the IC50 is 11 to 100 nM.

Turning to `O=C(O)C[C@H]1CC[C@H](c2ccc(NC(=O)c3oc(N4CCC(c5ccccc5)CC4)nc3C(F)(F)F)cc2)CC1` [Compound 216, 2-((1r,4r)-4-(4-(2-(4-phenylpiperidin-1-yl)-4-(trifluoromethyl)oxazole-5-carboxamido)phenyl)cyclohexyl)acetic acid], the IC50 is 101 to 500 nM.

Turning to `CN(CCc1ccccc1)c1nc(C(F)(F)F)c(C(=O)Nc2ccc(N3CCN(C(=O)Nc4ccccc4F)CC3)nc2)o1` [Compound 316, N-(6-(4-(2-fluorophenylcarbamoyl)piperazin-1-yl)pyridin-3-yl)-2-(methyl(phenethyl)amino)-4-(trifluoromethyl)oxazole-5-carboxamide], the IC50 was 11 to 100 nM.

Turning to `O=C(Nc1ccc(N2CCN(C(=O)Nc3ccccc3F)CC2)nc1)c1oc(N2CCC(F)(c3ccccc3)CC2)nc1C(F)(F)F` [Compound 325, N-(6-(4-(2-fluorophenylcarbamoyl)piperazin-1-yl)pyridin-3-yl)-2-(4-fluoro-4-phenylpiperidin-1-yl)-4-(trifluoromethyl)oxazole-5-carboxamide], the IC50 was in the range of 101 to 500 nM.

With `O=C(Nc1ccc(N2CCN(C(=O)Nc3ccccc3F)CC2)nc1)c1oc(N2CCCCCC2)nc1C(F)(F)F` [Compound 334, 2-(azepan-1-yl)-N-(6-(4-(2-fluorophenylcarbamoyl)piperazin-1-yl)pyridin-3-yl)-4-(trifluoromethyl)oxazole-5-carboxamide], the half-inhibitory concentration (IC50) is 11 to 100 nM.

For `O=C(Nc1ccc(N2CCN(C(=O)c3ccccc3F)CC2)nc1)c1oc(N2CCC(c3ccccc3)CC2)nc1C(F)(F)F` [Compound 284, N-(6-(4-(2-fluorobenzoyl)piperazin-1-yl)pyridin-3-yl)-2-(4-phenylpiperidin-1-yl)-4-(trifluoromethyl)oxazole-5-carboxamide], the IC50 was 101 to 500 nM.

For the compound `O=C(Nc1ccc(N[C@H]2CCN(C(=O)Nc3ccccc3F)C2)nc1)c1oc(N2CCC(c3ccccc3)CC2)nc1C(F)(F)F` [Compound 257, (S)—N-(6-(1-(2-fluorophenylcarbamoyl)pyrrolidin-3-ylamino)pyridin-3-yl)-2-(4-phenylpiperidin-1-yl)-4-(trifluoromethyl)oxazole-5-carboxamide], the IC50 lay in the range of 101 to 500 nM.

`C[C@@H]1CN(C(=O)Nc2ccccc2F)CCN1c1ccc(NC(=O)c2oc(N3CCC(c4ccccc4)CC3)nc2C(F)(F)F)cn1` [Compound 310, (R)—N-(6-(4-(2-fluorophenylcarbamoyl)-2-methylpiperazin-1-yl)pyridin-3-yl)-2-(4-phenylpiperidin-1-yl)-4-(trifluoromethyl)oxazole-5-carboxamide]: the IC50 was 101 to 500 nM.

For the compound `O=C(Nc1ccc(N2CCN(C(=O)Nc3ccccc3F)CC2)nc1)c1oc(NC2CCN(Cc3ccccc3)C2)nc1C(F)(F)F` (centres unmarked) [Compound 307, 2-(1-benzylpyrrolidin-3-ylamino)-N-(6-(4-(2-fluorophenylcarbamoyl)piperazin-1-yl)pyridin-3-yl)-4-(trifluoromethyl)oxazole-5-carboxamide], the IC50 is 101 to 500 nM.

For the compound `O=C(CN1CCN(c2ccc(NC(=O)c3oc(N4CCC(c5ccccc5)CC4)nc3C(F)(F)F)cn2)CC1)c1ccccc1F` [Compound 289, N-(6-(4-(2-(2-fluorophenyl)-2-oxoethyl)piperazin-1-yl)pyridin-3-yl)-2-(4-phenylpiperidin-1-yl)-4-(trifluoromethyl)oxazole-5-carboxamide], the IC50 lay in the range of 101 to 500 nM.

With `Cc1ccccc1NC(=O)c1ccc(-c2ccc(NC(=O)c3oc(N4CCCC(C)C4)nc3C(F)(F)F)nc2)cc1` (centres unmarked) [Compound 227, 2-(3-methylpiperidin-1-yl)-N-(5-(4-(o-tolylcarbamoyl)phenyl)pyridin-2-yl)-4-(trifluoromethyl)oxazole-5-carboxamide], the 50% inhibitory concentration (IC50) lay in the range of 11 to 100 nM.

For `Cc1ccccc1NC(=O)c1ccc(-c2ccc(NC(=O)c3oc(N4CCCC(C)C4)nc3C(F)(F)F)cc2)nc1` (centres unmarked) [Compound 242, 2-(3-methylpiperidin-1-yl)-N-(4-(5-(o-tolylcarbamoyl)pyridin-2-yl)phenyl)-4-(trifluoromethyl)oxazole-5-carboxamide], the IC50 was 11 to 100 nM.

As for `O=C(Nc1ccc(N2CCN(C(=O)Nc3ccccc3F)CC2)nc1)c1oc(N2CCc3ccccc3C2)nc1C(F)(F)F` [Compound 335, 2-(3,4-dihydroisoquinolin-2(1H)-yl)-N-(6-(4-(2-fluorophenylcarbamoyl)-piperazin-1-yl)pyridin-3-yl)-4-(trifluoromethyl)oxazole-5-carboxamide], the IC50 lay within 11 to 100 nM.

Consider `O=C(Nc1ccc(N2CCN(C(=O)Nc3ccccc3F)CC2)nc1)c1sc(COc2ccccc2)nc1C(F)(F)F` [Compound 252, N-(6-(4-(2-fluorophenylcarbamoyl)piperazin-1-yl)pyridin-3-yl)-2-(phenoxymethyl)-4-(trifluoromethyl)thiazole-5-carboxamide], for which the IC50 is 101 to 500 nM.

For `CC1CCCN(c2nc(C(F)(F)F)c(C(=O)Nc3ccc(N4CCN(C(=O)[C@H]5CC[C@H](C(=O)O)CC5)CC4)nc3)o2)C1` (stereo partly drawn) [Compound 341, trans-4-[[4-[5-[[[2-(3-methyl-1-piperidinyl)-4-(trifluoromethyl)-5-oxazolyl]carbonyl]amino]-2-pyridinyl]-1-piperazinyl]carbonyl]cyclohexanecarboxylic acid], the IC50 lay in the range of 101 to 500 nM.

Take `Cc1ccccc1NC(=O)c1ccc(-c2ccc(NC(=O)c3oc(N4CCCC(C)C4)nc3C(F)(F)F)cn2)cc1` (centres unmarked) [Compound 333, 2-(3-methylpiperidin-1-yl)-N-(6-(4-(o-tolylcarbamoyl)phenyl)pyridin-3-yl)-4-(trifluoromethyl)oxazole-5-carboxamide]: the half-maximal inhibitory concentration (IC50) was 11 to 100 nM.

Turning to `Cc1cc(N2CCN(C(=O)Nc3ccccc3F)CC2)ncc1NC(=O)c1oc(N2CCCC(C)C2)nc1C(F)(F)F` (centres unmarked) [Compound 321, N-(6-(4-(2-fluorophenylcarbamoyl)piperazin-1-yl)-4-methylpyridin-3-yl)-2-(3-methylpiperidin-1-yl)-4-(trifluoromethyl)oxazole-5-carboxamide], the IC50 was in the range of 101 to 500 nM.

Consider `CC1CCCN(c2nc(C(F)(F)F)c(C(=O)Nc3ccc(O[C@@H]4CCN(C(=O)Nc5ccccc5F)C4)nc3)o2)C1` (stereo partly drawn) [Compound 263, N-(6-((R)-1-(2-fluorophenylcarbamoyl)pyrrolidin-3-yloxy)pyridin-3-yl)-2-(3-methylpiperidin-1-yl)-4-(trifluoromethyl)oxazole-5-carboxamide], for which the IC50 fell in the range of 11 to 100 nM.

Regarding `O=C(Nc1ccc(N2CCN(C(=O)Nc3ccccc3F)CC2)nc1)c1oc(N2CCC(c3ccc(Cl)cc3)CC2)nc1C(F)(F)F` [Compound 273, 2-(4-(4-chlorophenyl)piperidin-1-yl)-N-(6-(4-(2-fluorophenylcarbamoyl)piperazin-1-yl)pyridin-3-yl)-4-(trifluoromethyl)oxazole-5-carboxamide], the IC50 is 11 to 100 nM.
